Source: EP4591861A1 (IBIOME Biotechnology Co., Ltd., priority 2022, dated 2024)

Tests used:
[1] = tested on: AAD-induced depression model; assay: Forced swimming test in AAD-induced depression model; format: in vivo, mice; conditions: for immobility time: forced swimming, AAD mice, 2 hours after administration
Experimental: The forced swimming test apparatus is a transparent 20×30cm round barrel filled with pure water, with a diameter of 20cm and a water depth of 15cm. The pure water temperature is 23-25°C. A camera is installed in front of the apparatus and is flush with the water surface. After the mouse is placed in the water, a video of its activities in the water is collected for 6 minutes. The last 4 min of the video were analyzed to determine the immobility time of the mouse. Immobility behavior is defined as the behavior of the mouse floating, not struggling, or relying only on occasional swinging to maintain floating. The longer the immobility time, the more severe the depression.
(§1) 11, 12, and 13. […] At the same time, it still has a significant antidepressant effect at concentrations of 0.3 mg/kg, 1 mg/kg, and 10 mg/kg.

[2] = tested on: AAD-induced depression model; assay: Sucrose preference test in AAD-induced depression model; format: in vivo; conditions: AAD mice; 0.1 mg/kg intravenous; versus AAD mice + normal saline group (P<0.01)
Experimental: as §1

human BBOX1 = biological target: T1, human BBOX1 (Homo sapiens, UniProt O75936); conditions: binding to the active site of human BBOX1; background statement; cited from earlier work
T1 sequence (O75936 1-387): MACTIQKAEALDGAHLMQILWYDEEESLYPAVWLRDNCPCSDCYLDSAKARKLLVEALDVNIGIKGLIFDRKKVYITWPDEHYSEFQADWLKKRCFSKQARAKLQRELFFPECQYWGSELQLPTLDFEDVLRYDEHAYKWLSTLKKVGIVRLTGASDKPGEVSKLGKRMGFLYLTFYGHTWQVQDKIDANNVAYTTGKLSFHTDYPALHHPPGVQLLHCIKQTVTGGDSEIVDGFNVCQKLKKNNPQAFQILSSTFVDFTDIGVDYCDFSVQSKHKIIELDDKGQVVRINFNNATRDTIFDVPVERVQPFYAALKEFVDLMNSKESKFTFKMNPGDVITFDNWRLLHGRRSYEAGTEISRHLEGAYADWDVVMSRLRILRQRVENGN

[3] = tested on: CRS-induced depression model; assay: Sucrose preference test in CRS-induced depression model; conditions: CRS mice; 0.1 mg/kg intravenous; versus CRS + normal saline group (P<0.01)
Excerpt: After adapting to the environment, from day 0, the CRS mouse group was subjected to chronic, unpredictable mild stimulation for 21 days to simulate the chronic low-intensity stress received by humans in daily life. Every day, one stimulus was selected from the day and night to treat the mice, and the order was random and continuous without repetition, so that the mice could not predict the appearance of the stimulus (Table 1).
Two hours after administration, the mice were subjected to forced swimming and tail suspension tests, and the immobility time of the mice in each group in the forced swimming and tail suspension tests was compared.
The sucrose preference test is used to evaluate the sucrose water preference of mice, which can reflect the degree of anhedonia of mice. In the entire animal experiment, a total of two sucrose preference tests were conducted. Before modeling, the sucrose preference coefficient of all mice was measured by the sucrose preference tests to ensure that the mice in the experiment were in the same state. After the test, the sucrose preference tests were formally carried out, including the adaptation training part and the test part. […] After the adaptation, fasting and water deprivation for 24 hours, and then the sucrose preference coefficient was measured. […]

[4] = tested on: Cort-induced depression model; assay: Sucrose preference test in Cort-induced depression model; conditions: Cort mice; 0.1 mg/kg intravenous; versus Cort mice + normal saline group (P<0.01)
Experimental: The sucrose preference test is used to evaluate the sucrose water preference of mice, which can reflect the degree of anhedonia of mice. In the entire animal experiment, a total of two sucrose preference tests were conducted. Before modeling, the sucrose preference coefficient of all mice was measured by the sucrose preference tests to ensure that the mice in the experiment were in the same state. After the test, the sucrose preference tests were formally carried out, including the adaptation training part and the test part. In the training, two bottles of 1% (w/v) sucrose solution were placed in each cage of mice in the first 24 hours, and one of the bottles was replaced with pure water in the next 24 hours. After the adaptation, fasting and water deprivation for 24 hours, and then the sucrose preference coefficient was measured. In the test, mice can only choose two bottles weighed in advance, one bottle is 1% (w/v) sucrose solution, and the other bottle is pure water. After fasting for 24 hours, take away the two bottles and weigh them, and record the total liquid consumption, sucrose water consumption and pure water consumption of the mice. The calculation method of sucrose preference coefficient is: sucrose preference coefficient (%) = sucrose water consumption/ (sucrose water consumption + pure water consumption) × 100%. […]

[5] = tested on: AAD-induced depression model; assay: Tail suspension test in AAD-induced depression model; format: in vivo; conditions: AAD mice, 2 hours after administration
Experimental: The tail suspension test uses tape to suspend mice by their tails in a position where they cannot escape or grab onto nearby surfaces. A camera is mounted in front of the mice to record the activity of the mice for 6 minutes while they are suspended. The last 4 min of the video is then analyzed to determine the time the mice spend immobile. This test is based on the idea that animals that are subjected to short-term, unavoidable stress will develop an immobile posture, and the more severe the depressive phenotype, the less time they will spend trying to escape.
as §1

[6] = 0.1 mg/kg intravenous, versus AAD mice + normal saline group

SMILES	duration of the antidepressant effect after a single administration ([1]; mouse, in vivo, iv, 0.1 mg/kg) [h]	sucrose preference [2]	dissociation constant (human BBOX1)	sucrose preference [3]	sucrose preference [4]	immobility time [1, 6]	immobility time ([1]; 3 mg/kg intravenous)	immobility time [5, 6]	immobility time ([5]; 3 mg/kg intravenous)
CC(CCC(=O)[O-])[N+](C)(C)C (stereo not shown) [4-TMAP, 4-(trimethylammonio) pentanoate]	24 to 36	significantly higher	low	significantly higher	significantly higher	–	–	–	–
O=c1ccc2ccc(OCCCCN3CCN(c4cccc5sccc45)CC3)cc2[nH]1 [Brexpiprazole]	–	cannot change the depressive-like behavior	–	–	–	cannot change the depressive-like behavior	significantly reducing	cannot change the depressive-like behavior	significantly reducing
